# Test results from patent US20160075682A1, “INHIBITORS OF NICOTINAMIDE PHOSPHORIBOSYLTRANSFERASE, COMPOSITIONS, PRODUCTS AND USES THEREOF” (UNIVERSITÀ DEGLI STUDI DEL PIEMONTE ORIENTALE "AMEDEO …, priority 2013, published 2016).
# Key:
# [1] = system: Dextran-induced colitis in C57/BJ6 mice; experiment: Experimental colitis induced by dextran sulfate sodium (DSS); format: in vivo; settings: i.p., doses of between 20 mg/Kg and 500 mg/Kg
# Procedure: Animal work was authorized by the local ethical committee for animal studies (Università del Piemonte Orientale). Colitis was induced in C57/BJ6 mice (Harlan Nossan, Milan, Italy) by addition of DSS (2%) to their daily drinking water for 7 days followed by a 3-day recovery period without DSS. The severity of colitis was assessed using these set of criteria: (1) clinical index (daily changes in body weight; diarrhea and rectal bleeding); (2) macroscopic evidence of colitis (shortening of colon length). On day 10 of the experiment, animals were sacrificed. Treatments were performed with either solvent alone or drugs once a day for the entire duration of the experiments from day 1 to day 7. The colon lengths were measured and colon tissues were harvested for biochemical measurements, histopathological assessment and scoring. (Tang Y, Preuss F, Turek F W, Jakate S, Keshavarzian A. Sleep deprivation worsens inflammation and delays recovery in a mouse model of colitis. Sleep Med. 2009 June; 10(6):597-603).
# (§1) As previously described, the colon of DNBS- or dextran treated animals was removed after the induction of colitis. Compounds of formula (I) were administered intraperitoneally (i.p.).
# [2] = Microsomal stability with rat liver microsomes; format: in vitro ADME, Male Wistar rat; settings: 50 μM substrate, 1.0 mg/mL protein, 60 minutes at 37° C., pH 7.4
# Procedure: (§2) Male Wistar rat liver microsomes (RLM), (protein concentration: 25 mg/ml determined using the Omura and Sato method, total P450: 0.64 nmol/mg protein) were used throughout this study and prepared using an internal protocol. The cryopreserved pooled human liver microsomes (HLM), (pooled mixed sex, ten individual donors, protein concentration: 20 mg/ml, total P450: 0.36 nmol/mg) were purchased from BD Gentest™ (Woburn, Mass.) and used throughout this study.
# (§3) The standard incubation mixture (1 ml final volume), was carried out in a 50 mM TRIS (Tris[hydroxymethyl]aminomethane) buffer (pH 7.4) containing 10 μl of acetonitrile (1% of total volume), and 50 μM substrate compounds. After pre-equilibration of the mixture, an appropriate volume of RLM or HLM suspension was added to give a final protein concentration of 1.0 mg/mL. The mixture was shaken for 60 minutes at 37° C. Control incubations were carried out without microsomes. Each incubation was stopped by addition of 1 ml ice-cold acetonitrile, vortexed and centrifuged at 11,000 r.p.m. for 5 min. The supernatants were analysed by LC-DAD-UV and LC-ESI-MS systems to determine the metabolic stability (% substrate residue) and the structure of metabolites respectively (Table 1).
# (§4) A Shimadzu HPLC system (Shimadzu, Kyoto, Japan), consisting of two LC-10AD Vp module pumps, an SLC-10A Vp system controller, an SIL-10AD Vp autosampler, and a DGU-14-A on-line degasser were used for the analysis. Chromatographic separation was performed on a Phenomenex Luna C18(2) 150×4.6 mm (5 μm) (Phenomenex srl, Castel Bolognese, Italy) as a stationary phase protected by a C18 SecurityGuard (Phenomenex srl, Castel Bolognese, Italy). The SPD-M10Avp photodiode array detector was used to detect the analytes. LC-Solution 1.24 software was used to process the chromatograms. Aliquots (20 μL) of supernatants obtained from incubations were injected onto the HPLC system and eluted with a mobile phase (flow rate 1.0 mL/min) consisting of a A: 0.5% formic acid solution, B: acetonitrile/methanol 8:2. A Thermo Finningan LCQ Deca XP plus system equipped with a quaternary pump, a Surveyor AS autosampler, a Surveyor photodiode array detector and a vacuum degasser was used for LC/MS analyses (Thermo Electron Corporation, Waltham, Mass.). All the chromatographic separations were performed on a Phenomenex Luna C18(2)150×2 mm (4 μm) (kept at a 35° C.) as a stationary phase protected by a C18 SecurityGuard (Phenomenex srl, Castel Bolognese, Italy). Aliquots (2.0 μl) of supernatants obtained from incubations were injected onto the system and eluted with a mobile phase (flow rate 0.2 ml/min) consisting of a A: 0.2% formic acid solution, B: acetonitrile/methanol 8:2. The eluate was injected into the electrospray ion source (ESI) and MS and MS^n spectra were acquired and processed using Xcalibur® software. The operating conditions on the ion trap mass spectrometer were as follows: Positive mode, spray voltage, 5.30 kV; source current, 80 μA; capillary temperature, 350° C.; capillary voltage, 21.00 V; tube lens offset, 15.00 V; multipole 1 offset, −5.75 V; multipole 2 offset, −9.00 V; sheath gas flow (N2), 55 Auxiliary Units.
# NAMPT = molecular target: T1, NAMPT (Homo sapiens, UniProt P43490); experiment: Direct inhibition of NAMPT enzymatic activity (Cyclex NAMPT colorimetric Assay Kit); format: biochemical; settings: as assessed with a cycling assay
# T1 construct: endogenous in cells; host or cells: SH-SY5Y and HeLa
# Procedure: Determination of the direct activity of compounds on NAMPT was performed using a commercial kit, Cyclex NAMPT colorimetric Assay Kit.
# [3] = Metabolites generated from hydrolyses in RLM or HLM incubations (LC-ESI-MS); format: in vitro ADME, rat, human; settings: RLM or HLM incubation, 60 minutes at 37° C.
# Procedure: as §2, §3, §4
# [4] = system: DNBS-induced colitis in BALB/c mice; experiment: Experimental colitis induced by DNBS; format: in vivo; settings: i.p.; for MPO in the colon / NAMPT in the colon / TNFalpha in the colon / VEGF in the colon: DNBS-treated mice, between 20 mg/Kg and 500 mg/Kg, compared to untreated colitis mice; for protection from DNBS-induced colitis as assessed by the macroscopic damage score: doses of between 20 mg/Kg and 500 mg/Kg
# Procedure: Animal work was authorized by the local ethical committee for animal studies (Università del Piemonte Orientale). BALB/c mice (Harlan Nossan, Milan, Italy) were anesthetized by enflurane. Dinitrobenzene sulfonic acid (DNBS; 4 mg in 100 μl of 50% ethanol) was injected into the rectum through a catheter inserted 4.5 cm proximally to the anus. Carrier alone (100 μl of 50% ethanol) was administered in control experiments. Thereafter, the animals were kept for 15 minutes in a Trendelenburg position to avoid reflux. Treatment with either solvent alone or drugs was done immediately after induction and thereafter twice a day. […] On Day 4, the animals were weighed and anaesthetized with chloral hydrate, and the abdomen was opened by a midline incision. The colon was removed, freed from surrounding tissues, opened along the antimesenteric border, rinsed, weighed, and processed for histology, biochemical measurements and immunohistochemistry. Colon damage (macroscopic damage score) was evaluated and scored by two independent observers according to the following criteria: 0, no damage; 1, localized hyperemia without ulcers; 2, linear ulcers with no significant inflammation; 3, linear ulcers with inflammation at one site; 4, two or more major sites of inflammation and ulceration extending >1 cm along the length of the colon; and 5-8, one point is added for each centimeter of ulceration beyond an initial 2 cm. Biochemical and histological analysis also included TNFalpha measurements and myeloperoxidase (MPO) measurements by ELISA assay, and VEGF, NAMPT, COX-2 measurements by immunoblotting. (Esposito E, Mazzon E, Paterniti I, Dal Toso R, Pressi G, Caminiti R, Cuzzocrea S. PPAR-alpha Contributes to the Anti-Inflammatory Activity of Verbascoside in a Model of Inflammatory Bowel Disease in Mice. PPAR Res. 2010; 2010:917312).
# as §1
# [5] = Microsomal stability with human liver microsomes; format: in vitro ADME; settings: 50 μM substrate, 1.0 mg/mL protein, 60 minutes at 37° C., pH 7.4
# Procedure: as §2, §3, §4
# T1 sequence (P43490 whole entry): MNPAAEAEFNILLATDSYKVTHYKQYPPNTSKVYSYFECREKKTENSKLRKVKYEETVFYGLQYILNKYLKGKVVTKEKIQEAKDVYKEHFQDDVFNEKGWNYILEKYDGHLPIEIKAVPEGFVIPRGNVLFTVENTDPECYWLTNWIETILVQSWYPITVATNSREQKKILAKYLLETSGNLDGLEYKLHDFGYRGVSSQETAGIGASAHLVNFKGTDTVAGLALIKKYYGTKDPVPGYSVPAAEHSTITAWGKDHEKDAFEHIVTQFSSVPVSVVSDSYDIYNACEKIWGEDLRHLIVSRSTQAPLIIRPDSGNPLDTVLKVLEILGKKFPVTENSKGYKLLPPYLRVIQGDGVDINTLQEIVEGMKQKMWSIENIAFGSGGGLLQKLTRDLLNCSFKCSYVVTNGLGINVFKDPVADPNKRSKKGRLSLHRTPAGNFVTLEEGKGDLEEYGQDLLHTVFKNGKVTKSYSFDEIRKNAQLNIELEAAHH
Structure (SMILES),protection from Dextran-induced colitis as assessed by the macroscopic damage score [1],RLM stability % substrate residue (area peak) [2] [%],inhibition of the enzymatic activity of NAMPT (NAMPT),Metabolites generated from hydrolyses [3],MPO in the colon [4],NAMPT in the colon [4],TNFalpha in the colon [4],VEGF in the colon [4],protection from DNBS-induced colitis as assessed by the macroscopic damage score [4],HLM stability % substrate residue (area peak) [5] [%]
"c1ccc(-c2ccccc2OCCCCCCn2cc(-c3cccnc3)nn2)cc1 [3-(1-(6-([1,1′-biphenyl]-2-yloxy)hexyl)-1H-1,2,3-triazol-4-yl)pyridine]",able to protect,>98,able to inhibit,no,able to reduce,able to reduce,able to reduce,able to reduce,able to protect,>96
"O=C(NCCCCCCCn1cc(-c2cccnc2)nn1)c1ccccc1-c1ccccc1 [N-(7-(4-(pyridin-3-yl)-1H-1,2,3-triazol-1-yl)heptyl)-[1,1′-biphenyl]-2-carboxamide]",able to protect,>99,able to inhibit,no,able to reduce,able to reduce,able to reduce,able to reduce,able to protect,>99
